In patent US10335382B2, “Use of hydrogen sulfide synthesis inhibitors for cancer therapy” (THE BOARD OF REGENTS OF THE UNIVERSITY OF TEXAS SYSTEM, priority 2013, dated 2019):

Target: T1, CBS (Homo sapiens, UniProt P35520)
T1 sequence (P35520 1-551): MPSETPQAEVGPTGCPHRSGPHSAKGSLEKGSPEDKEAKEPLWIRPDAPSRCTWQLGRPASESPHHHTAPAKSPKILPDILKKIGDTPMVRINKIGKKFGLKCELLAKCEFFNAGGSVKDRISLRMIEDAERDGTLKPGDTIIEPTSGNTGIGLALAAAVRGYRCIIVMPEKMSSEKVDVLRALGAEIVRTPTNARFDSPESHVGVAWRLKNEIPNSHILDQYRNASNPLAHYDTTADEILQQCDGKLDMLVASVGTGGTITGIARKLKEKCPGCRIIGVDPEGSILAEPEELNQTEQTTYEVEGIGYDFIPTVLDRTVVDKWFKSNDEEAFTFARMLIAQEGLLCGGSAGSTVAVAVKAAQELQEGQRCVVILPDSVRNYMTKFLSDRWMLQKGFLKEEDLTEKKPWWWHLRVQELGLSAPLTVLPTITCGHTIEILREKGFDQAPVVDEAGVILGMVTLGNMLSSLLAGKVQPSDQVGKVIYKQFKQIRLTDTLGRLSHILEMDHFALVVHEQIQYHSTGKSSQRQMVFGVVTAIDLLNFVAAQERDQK
Test: CBS inhibitor screen: H2S production by recombinant CBS (methylene blue assay)
Type: biochemical
Design: These studies used full-length human CBS enzyme; made in house; host or cells: E. coli BL21 (DE3) Codon Plus
Conditions: 100 μM; homocysteine-induced H2S production; LOPAC library screen; read-out: Inhibition of CBS activity at 100 μM
Text: Studies have been performed characterizing, in detail, the specificity and selectivity of all known H2S biosynthesis inhibitors, using recombinant CBS and CSE enzymes. These studies used full-length human CBS enzyme, and a colorimetric ‘capture’ reaction of the H2S produced by these enzymes, an assay generally known as the ‘methylene blue assay’. This assay is used in a 96-well plate format, as well as in combination with a second screening method based on a fluorescent dye.
Human recombinant CBS is expressed as described (Asimakopoulou et al, (2013) Br J Pharmacol. 169(4):922-32). A library of pharmacologically active compounds (e.g., LOPAC library, Sigma; 1240 compounds) is tested on homocysteine-induced H2S production. In certain aspects the assay is in a 96-well format. In certain aspects H2S production is measured by the methylene blue assay (Asimakopoulou et al., (2013) Br J Pharmacol. 169(4):922-32).
Plasmids, bacterial strains and media. E. coli BL21 (DE3) Codon Plus is used as a host strain to express recombinant human CSE or CBS. CSE cDNA was cloned into pGEX-4T3 and CBS into pGEX-Kg to create N-terminal GSH-S-transferase (GST) fusion proteins. The expression vectors were transformed and plated on LB-agar plates, supplemented with ampicillin (100 μg/mL).
The expression and purification of CSE and CBS is performed as described previously with modifications (Frank et al., (2008) Arch Biochem Biophys 470:64-72; Huang et al., (2009) J Mol Biol 396: 708-18). Briefly, BL21(DE3) Codon Plus cells containing either the expression vector pGEX-4T3/GST-CSE or pGEX-Kg/GST-CBS are grown at 37° C. and 180 r.p.m. in LB broth medium containing 100 μg/mL ampicillin to an absorption of 0.6-0.8 at 600 nm. In addition, 0.3 mM d-ALA is added to the culture containing pGEX-Kg/GST-CBS. Then protein expression is induced by addition of 0.1 mM IPTG. Cells containing pGEX-4T-3/GST-CSE are incubated overnight at 18° C., whereas cells containing pGEXKg/GST-CBS are incubated overnight at 30° C. Culture is then centrifuged at 4° C. and 5000×g for 10 min and the cell pellet was resuspended in PBS (140 mM NaCl, 2.7 mM KCl, 10 mM Na2HPO4, 1.8 mM KH2PO4, pH 7.8) and stored at −20° C. overnight. After thawing, the suspension is sonicated in lysis buffer containing PBS and protease inhibitor cocktail for GST-CSE and PBS, 5 mM DTT, 1% Triton X-100, […] and protease inhibitor cocktail for GST-CBS. After centrifugation at 4° C. for 30 min, the soluble fraction containing either the GST-CSE or the GST-CBS recombinant protein is loaded onto a GSTrap FF 1 mL affinity column that has been equilibrated with binding buffer PBS. The column was consecutively washed with five column volumes of binding buffer. Proteins attached to the column, including GST-CSE or GST-CBS recombinant proteins, are eluted with five column volumes of elution buffer (50 mM Tris-HCl, 10 mM reduced GSH, pH 8.0) and then dialysed and concentrated in 10 mM sodium phosphate buffer pH 8.2 and DTT 1 mM. The purity of the recombinant enzymes was checked by SDS-PAGE on 12% polyacrylamide gels after staining of protein bands with Coomassie Blue R-250. Protein concentration was determined using the DC protein assay kit.
H2S determination is performed according to Stipanuk and Beck ((1982) Biochem J 206:267-77) with some modifications. In the case of the CSE enzyme, an assay consist of a 100 μL reaction mixture containing 5 μg of the purified CSE enzyme, 0.01 mM PLP, 1 mM L-cys, and 50 mM sodium phosphate buffer pH 8.2. For the CBS enzyme, the reaction mixture contains the same as for the CSE plus 1 mM homocysteine. The inhibitors can be added to the reaction before L-cys is added to the solution. Reactions are initiated by transferring the reaction solutions from ice to a 37° C. shaking water bath. After incubation at 37° C. the reaction is terminated by adding 1% ZnAc to trap H2S followed by 10% TCA to precipitate proteins. […]

Work on `NOCC(=O)O` [AOAA, aminooxyacetic acid] yielded an inhibition at 100 µM of 98%.
